Assay results as given in PMC5756575, “In Vitro Biotransformation, Safety, and Chemopreventive Action of Novel 8-Methoxy-Purine-2,6-Dione Derivatives” (Applied Biochemistry and Biotechnology, 2017).

Legend:
[1] = system: Cunninghamella echinulata NRRL 1384; assay: Cunninghamella biotransformation assay, C. echinulata; assay type: in vitro ADME; conditions: 0.5 mg/mL, 7-day incubation, LC-MS/MS
Description: Three different strains of Cunninghamella were used: Cunninghamella echinulata NRRL 1384, Cunninghamella blakesleeana 1908 DMS, and Cunninghamella elegans 1906 DMS. The first was provided by Dr. A.J. Carnell (University of Liverpool, UK), whereas the two remaining were purchased from Deutsche Sammlung von Mikroorganismen und Zellkulturen GmbH (DMSZ, Braunschweig, Germany).
Cunninghamella strains were cultivated on solid potato dextrose agar (PDA) plates at 28 °C. After 4 days, a liquid fermentation basal medium was prepared by the addition of 6 g of D-glucose, 1.5 g of NaCl, 1.5 g of yeast extract from Saccharomyces cerevisiae, and 1.5 g of K2HPO4 to 300 mL of distilled water. Aliquots of 24.5 mL of medium were inoculated with 300 μL of suspension of fungal spores obtained after wetting colonies in PDA. The fungi were incubated with shaking until the formation of spherical clumps.
Compounds 2–4 were evaluated in this experiment. Once microorganisms formed spherical clumps in the preliminary incubation, the corresponding tested compound was added to the broth and the mixture was incubated for 7 days. Two control experiments were also performed, in the absence of compound and fungus, respectively. Biotransformation progress was monitored by TLC and by liquid chromatography electrospray ionization-tandem mass spectrometry (LC-MS/MS). Monitoring was performed at four different incubation times: 30 min, 3 days, 5 days, and 7 days.
To analyze metabolites in LC-MS/MS, an aliquot of 500 μL of filtered sample was taken and extracted with 500 μL of dichloromethane. The organic fraction was dried with sodium sulfate, filtered, and evaporated. The obtained residue was analyzed in LC-MS/MS. At the end of experiment, all the remaining medium was extracted with 25 mL of dichloromethane after separating the fungal clumps by filtration over cellulose filters.
(§1) Agilent 1100 HPLC system (Agilent Technologies, Waldbronn, Germany) equipped with a Xbridge™ C18 analytical column (2.1 × 30 mm, […]; Waters, Dublin, Ireland) was used in the chromatographic separation of LC-MS/MS analysis. An elution gradient of acetonitrile and water, with 0.1% of formic acid, was used as a mobile phase. MS spectra were taken at Applied Biosystems MDS Sciex API 200 triple quadrupole mass analyzer (Concord, Ontario, Canada) with an electrospray ionization (ESI) interface between HPLC and MS.

rat liver microsomes = assay: Microsomal stability assay; assay type: in vitro ADME; conditions: rat microsomal biotransformation after 30 min of incubation
Description: Compounds 1 and 3 were studied in a biotransformation assay using rat liver microsomes following procedures described previously. The reagents used in this assay were levallorphan (internal standard) and NADPH-regenerating system, which contained phosphate buffer (pH 7.4), NADP^+, glucose-6-phosphate, and glucose-6-phosphate dehydrogenase. The final protein concentration in the assay was 0.4 mg/mL. Compounds 1 and 3 were tested at a final concentration of 20 μM.
The amount of a parental compound remaining in a solution after biotransformation was monitored using LC-MS/MS as described previously in “Cunninghamella Biotransformation Assay.” Graphs representing ln of percentage of parent compound remaining versus incubation time were drawn to calculate in vitro half-time (t1/2) from the slope of linear regression. To obtain intrinsic clearance (Clint) of a tested compound in rat liver microsomal assay, t1/2 previously calculated was substituted at the equation Clint = [(Vmic/Pmic) × 0.693/t1/2], being Vmic and Pmic the volume of incubation in microliters and the amount of incubated protein in milligrams, respectively.
as §1

Compound	% of compound/metabolite in C. echinulata [1]	% content among metabolites (rat liver microsomes)
COc1nc2c(c(=O)n(C)c(=O)n2C)n1CCCC(N)=O [3-M1]	1.5%	100%
COc1nc2c(c(=O)n(C)c(=O)n2C)n1CCCC(=O)NCc1ccccc1O [3-M2]	1.6%	
COc1nc2c(c(=O)n(C)c(=O)n2C)n1CCCC(=O)NCc1cccc(O)c1 [3-M3]	0.3%	
